≈ marks a conversion by molar mass, not a printed value.
Key:
Format in all cases: functional
Settings in all cases: read-out: ED50 (the source's name)
K562 = assay: Cytotoxicity against human K562 cells
BT-549 = assay: Cytotoxicity against human BT549 cells
SR = assay: Cytotoxicity against human SR cells
CCRF-CEM = assay: Cytotoxicity against human CCRF-CEM cells
IGROV-1 = assay: Cytotoxicity against human IGROV1 cells
MCF7 = assay: Cytotoxicity against human MCF7 cells
RPMI-8226 = assay: Cytotoxicity against human RPMI8226 cells
HOP-92 = assay: Cytotoxicity against human HOP92 cells
HL-60 = assay: Cytotoxicity against human HL-60(TB) cells

C=C1C(=O)O[C@@H]2O[C@@]3(C)CC[C@H]4[C@H](C)CC[C@@H]1[C@@]24O3 [DEOXYARTEMISITENE]
EC50 (K562): 0.94 µg/mL (≈ 3.56 µM)
EC50 (BT-549): 1.97 µg/mL (≈ 7.45 µM)
EC50 (SR): 1.89 µg/mL (≈ 7.15 µM)
EC50 (CCRF-CEM): 0.92 µg/mL (≈ 3.48 µM)
EC50 (IGROV-1): 0.89 µg/mL (≈ 3.37 µM)
EC50 (MCF7): 1.46 µg/mL (≈ 5.52 µM)
EC50 (RPMI-8226): 1.68 µg/mL (≈ 6.36 µM)
EC50 (HOP-92): 0.92 µg/mL (≈ 3.48 µM)
EC50 (HL-60): 0.69 µg/mL (≈ 2.61 µM)

— ChEMBL document CHEMBL1159319, “Deoxyartemisinin derivatives from photooxygenation of anhydrodeoxydihydroartemisinin and their cytotoxic evaluation” (2002)
